From patent publication US20060204547A1, “Drug delivery stent with extended in vivo release of anti-inflammatory” (Conor Medsystems, Inc., priority 2005, published 2006)

Assay: in vivo Pimecrolimus release from stent implanted in porcine model, residual drug load by HPLC
Settings: PLGA matrix reservoir stent, FIG. 4, porcine
Excerpt: In the example of FIG. 4, a stent is cut from a cobalt chromium alloy according to the pattern shown in FIGS. 1 and 2 and Pimecrolimus is loaded in a PLGA matrix within reservoirs in the stent. The drug and matrix are arranged for directional delivery of the drug primarily to the mural side of the stent. The in vivo drug release rate is programmed by providing different concentrations of drug in different regions of the matrix similar to the regions shown in FIG. 3, with a luminal region 50 of primarily PLGA, a middle region 60 of about 75% Pimecrolimus and about 25% PLGA, and a mural region 70 of about 95% Pimecrolimus and about 5% PLGA. The reservoirs are filled, by volume, with about 20-25% base or luminal region, 40-45% middle region, and 25-30% mural region. The in vivo drug releases described herein are normalized for a 3.0 mm diameter×16 mm long expanded stent which has almost 500 reservoirs and a total drug volume of about 0.54 mm^3.
The measurement of in vivo Pimecrolimus release from a stent can be performed according to the following Example. The in vivo release from other implantable medical devices can be performed in a similar manner by removal of tissue and measurement of total drug load and release kinetics by high pressure liquid chromatography (HPLC).
Stents are implanted in a porcine model and explanted at selected time points by removing the entire artery section. The expanded stents are labeled and frozen. The tissue is removed from the stent by slicing the tissue on the outside of the stent lengthwise, inverting the tissue, and removing the tissue by cutting and turning the tissue inside out. The stent may still be covered by a tough elastic membrane which is then removed by splitting the membrane and peeling it off the stent. For longer time points, there will also be a tube of tissue inside the stent. This tube is separated from the stent with tweezers, turned inside out and pulled out of the stent.
The following is the test procedure for generating the in vivo release curves for Pimecrolimus in FIG. 4.
The total drug load (TDL) of Pimecrolimus from a stent is determined by extracting all the polymer and drug from the stent in the solvent acetonitrile. The amount of Pimecrolimus in a solution sample is determined by High Pressure Liquid Chromatography (HPLC). The following conditions are used:
The in vivo release kinetic (RK) for Pimecrolimus from a stent is determined by running the TDL for multiple explanted time points. The TDL for the explanted samples is subtracted from the TDL of an unimplanted stent to determine the amount of Pimecrolimus released at each of the explanted time points.

Compound: CC[C@@H]1/C=C(\C)C[C@H](C)C[C@H](OC)[C@H]2O[C@@](O)(C(=O)C(=O)N3CCCC[C@H]3C(=O)O[C@H](/C(C)=C/[C@@H]3CC[C@H](Cl)[C@H](OC)C3)[C@H](C)[C@@H](O)CC1=O)[C@H](C)C[C@@H]2OC [Pimecrolimus]
- in vivo cumulative release, percent of total Pimecrolimus loaded on stent (4 hour): about 10%
- in vivo cumulative release, percent of total Pimecrolimus loaded on stent (24 hour): about 25%
- in vivo cumulative release, percent of total Pimecrolimus loaded on stent (2 day): about 40%
- in vivo cumulative release, percent of total Pimecrolimus loaded on stent (8 day): about 50%
- in vivo cumulative release, percent of total Pimecrolimus loaded on stent (30 day): about 70%
- in vivo cumulative release, percent of total Pimecrolimus loaded on stent (50 day): about 70%
